# From PubChem BioAssay (NCI)
# “And” between values parts separate entries of the source, which are not always exact repeats. Identical values can stand only once.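 Five concentrations, 48 hours, 96-well plates. GI50 is the concentration that inhibits growth by half. TGI: total growth inhibition.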
# Tested on: EKVX NSCLC
# Experiment: NCI anticancer screen, dose series, 48 h
Compound,TGI [µM],GI50 [µM]
CCCCCCCCSC1=C(Cl)C(=O)C(OC)=C(OC)C1=O,24.9,–
O/N=C1\CCCCC1C(NO)c1ccccc1 (stereo not drawn),> 100,–
O=S(=O)(OI(OI(OS(=O)(=O)C(F)(F)F)c1ccccc1)c1ccccc1)C(F)(F)F,> 100,–
COc1cc(OC)c(OC)cc1/C=N/NC(=O)N/N=C/c1cc(OC)c(OC)cc1OC,> 100,–
C=C(C)C(C1C=C(CCC(C=O)=C(C)C)C(=O)O1)C1(OC)C=C(C)C(=O)O1 (stereo not drawn),> 100,> 100
CCOC(=O)Nc1c(C)nc2ccccn12,> 100,> 100
Nc1c(S(=O)(=O)c2ccc(Cl)cc2)c2nc3ccccc3nc2n2ccnc12,> 100,–
CCCCCCCC(=O)OCC1OC(n2cc(F)c(=O)[nH]c2=O)C(N)C(OC(=O)CCCCCCC)C1O (stereo not drawn),34,–
O=c1[nH]c(=O)n(C2CC(O)C(CO)O2)cc1OS(=O)(=O)C(F)(F)F (stereo not drawn),> 100,–
CC1=C(C(=O)Nc2ccccc2)C(c2ccc(Cl)c(Cl)c2)C(C(=O)Nc2ccccc2)=C(C)N1,30.9,–

# Tested on: SK-MEL-2 melanoma
# Experiment: NCI anticancer screen, dose series, 48 h
Compound,GI50 [µM],TGI
Cc1nc2c(Br)cc(Br)cc2c(=O)n1-c1nnc(-c2cccc(Cl)c2Cl)c(N)n1,27.4,> 100 µM
N#CC(I)CS(=O)(=O)c1ccccc1 (stereo not drawn),17.6,33.2 µM
COc1ccc2c(=O)oc3c(OC)cc(CCN(C)C)c4c(=O)oc1c2c34,–,33.1 µM and 29 µM
Cc1nc2sccn2c1-c1nc2sccn2c1/C=C1/C(=O)Nc2ccccc21,2.68,36.8 µM
CCCCCCCCSC1=C(Cl)C(=O)C(OC)=C(OC)C1=O,–,30.9 µM
O/N=C1\CCCCC1C(NO)c1ccccc1 (stereo not drawn),–,> 100 µM
COC(=O)c1c2c(c(C)[n+]([O-])c1C)C(=O)C(NCc1ccc(Br)cc1)=CC2=O,1.88,6.12 µM
O=S(=O)(OI(OI(OS(=O)(=O)C(F)(F)F)c1ccccc1)c1ccccc1)C(F)(F)F,–,> 100 µM
COc1cc(OC)c(OC)cc1/C=N/NC(=O)N/N=C/c1cc(OC)c(OC)cc1OC,–,> 100 µM
C=C(C)C(C1C=C(CCC(C=O)=C(C)C)C(=O)O1)C1(OC)C=C(C)C(=O)O1 (stereo not drawn),> 100,> 100 µM
CCOC(=O)Nc1c(C)nc2ccccn12,> 100,> 100 µM
Nc1c(S(=O)(=O)c2ccc(Cl)cc2)c2nc3ccccc3nc2n2ccnc12,–,> 100 µM
CCCCCCCC(=O)OCC1OC(n2cc(F)c(=O)[nH]c2=O)C(N)C(OC(=O)CCCCCCC)C1O (stereo not drawn),–,38.5 µM
O=c1[nH]c(=O)n(C2CC(O)C(CO)O2)cc1OS(=O)(=O)C(F)(F)F (stereo not drawn),–,> 100 µM

# Tested on: UACC-257 melanoma
# Experiment: NCI anticancer screen, dose series, 48 h
Compound,GI50,TGI
Cc1nc2c(Br)cc(Br)cc2c(=O)n1-c1nnc(-c2cccc(Cl)c2Cl)c(N)n1,24.5 µM,65.1 µM
N#CC(I)CS(=O)(=O)c1ccccc1 (stereo not drawn),17 µM,31.2 µM
COc1ccc2c(=O)oc3c(OC)cc(CCN(C)C)c4c(=O)oc1c2c34,19.7 µM and 3.31 µM,38.7 µM and 10.3 µM
Cc1nc2sccn2c1-c1nc2sccn2c1/C=C1/C(=O)Nc2ccccc21,16.3 µM,91.9 µM
CCCCCCCCSC1=C(Cl)C(=O)C(OC)=C(OC)C1=O,–,21.4 µM
O/N=C1\CCCCC1C(NO)c1ccccc1 (stereo not drawn),–,> 100 µM
COc1cc(OC)c(OC)cc1/C=N/NC(=O)N/N=C/c1cc(OC)c(OC)cc1OC,–,> 100 µM
C=C(C)C(C1C=C(CCC(C=O)=C(C)C)C(=O)O1)C1(OC)C=C(C)C(=O)O1 (stereo not drawn),> 100 µM,> 100 µM
CCOC(=O)Nc1c(C)nc2ccccn12,> 100 µM,> 100 µM
Nc1c(S(=O)(=O)c2ccc(Cl)cc2)c2nc3ccccc3nc2n2ccnc12,–,> 100 µM
CCCCCCCC(=O)OCC1OC(n2cc(F)c(=O)[nH]c2=O)C(N)C(OC(=O)CCCCCCC)C1O (stereo not drawn),–,33.4 µM
CC1=C(C(=O)Nc2ccccc2)C(c2ccc(Cl)c(Cl)c2)C(C(=O)Nc2ccccc2)=C(C)N1,–,26.5 µM

# Tested on: OVCAR-5 ovarian
# Experiment: NCI anticancer screen, dose series, 48 h
Compound,GI50 [µM],TGI
Cc1nc2c(Br)cc(Br)cc2c(=O)n1-c1nnc(-c2cccc(Cl)c2Cl)c(N)n1,26.6,74.5 µM
N#CC(I)CS(=O)(=O)c1ccccc1 (stereo not drawn),18.9,33.6 µM
COc1ccc2c(=O)oc3c(OC)cc(CCN(C)C)c4c(=O)oc1c2c34,–,31.9 µM and 22.3 µM
Cc1nc2sccn2c1-c1nc2sccn2c1/C=C1/C(=O)Nc2ccccc21,12.9,> 100 µM
CCCCCCCCSC1=C(Cl)C(=O)C(OC)=C(OC)C1=O,–,21.1 µM
O/N=C1\CCCCC1C(NO)c1ccccc1 (stereo not drawn),–,> 100 µM
O=S(=O)(OI(OI(OS(=O)(=O)C(F)(F)F)c1ccccc1)c1ccccc1)C(F)(F)F,–,> 100 µM
COc1cc(OC)c(OC)cc1/C=N/NC(=O)N/N=C/c1cc(OC)c(OC)cc1OC,–,> 100 µM
C=C(C)C(C1C=C(CCC(C=O)=C(C)C)C(=O)O1)C1(OC)C=C(C)C(=O)O1 (stereo not drawn),> 100,> 100 µM
CCOC(=O)Nc1c(C)nc2ccccn12,> 100,> 100 µM
Nc1c(S(=O)(=O)c2ccc(Cl)cc2)c2nc3ccccc3nc2n2ccnc12,–,> 100 µM
O=c1[nH]c(=O)n(C2CC(O)C(CO)O2)cc1OS(=O)(=O)C(F)(F)F (stereo not drawn),–,> 100 µM
CC1=C(C(=O)Nc2ccccc2)C(c2ccc(Cl)c(Cl)c2)C(C(=O)Nc2ccccc2)=C(C)N1,–,32.4 µM

# Tested on: IGROV1 ovarian
# Experiment: NCI anticancer screen, dose series, 48 h
Compound,GI50,TGI
Cc1nc2c(Br)cc(Br)cc2c(=O)n1-c1nnc(-c2cccc(Cl)c2Cl)c(N)n1,15 µM,55.1 µM
N#CC(I)CS(=O)(=O)c1ccccc1 (stereo not drawn),16.2 µM,39.8 µM
COc1ccc2c(=O)oc3c(OC)cc(CCN(C)C)c4c(=O)oc1c2c34,15.9 µM and 3.03 µM,29.6 µM and 11.5 µM
Cc1nc2sccn2c1-c1nc2sccn2c1/C=C1/C(=O)Nc2ccccc21,1.92 µM,7.77 µM
CCCCCCCCSC1=C(Cl)C(=O)C(OC)=C(OC)C1=O,–,32.2 µM
O/N=C1\CCCCC1C(NO)c1ccccc1 (stereo not drawn),–,> 100 µM
O=S(=O)(OI(OI(OS(=O)(=O)C(F)(F)F)c1ccccc1)c1ccccc1)C(F)(F)F,–,> 100 µM
COc1cc(OC)c(OC)cc1/C=N/NC(=O)N/N=C/c1cc(OC)c(OC)cc1OC,–,> 100 µM
C=C(C)C(C1C=C(CCC(C=O)=C(C)C)C(=O)O1)C1(OC)C=C(C)C(=O)O1 (stereo not drawn),92.6 µM,> 100 µM
CCOC(=O)Nc1c(C)nc2ccccn12,> 100 µM,> 100 µM
Nc1c(S(=O)(=O)c2ccc(Cl)cc2)c2nc3ccccc3nc2n2ccnc12,–,> 100 µM
CCCCCCCC(=O)OCC1OC(n2cc(F)c(=O)[nH]c2=O)C(N)C(OC(=O)CCCCCCC)C1O (stereo not drawn),–,47.7 µM
O=c1[nH]c(=O)n(C2CC(O)C(CO)O2)cc1OS(=O)(=O)C(F)(F)F (stereo not drawn),–,> 100 µM
CC1=C(C(=O)Nc2ccccc2)C(c2ccc(Cl)c(Cl)c2)C(C(=O)Nc2ccccc2)=C(C)N1,–,37.1 µM
